These are literature values, as cited in patent publication US20090005322A1, “Physiologically- Active Composition Based on Collagen” (priority 2004, published 2009).

The subject of the data set is human peripheral polymorphonuclear leucocytes.

For `C[C@@H]1O[C@@H](O[C@@H]2[C@@H](O)[C@H](OCCc3ccc(O)c(O)c3)O[C@H](CO)[C@H]2OC(=O)/C=C/c2ccc(O)c(O)c2)[C@H](O)[C@H](O)[C@H]1O` [Acteoside, acteoside], the “formation of eicosatetraenoic acid derivatives (5-HET)” value is “inhibits” and the “formation of leucotriene B4” value is given as “inhibits”.
